According to ChEMBL document CHEMBL1201862, “PubChem BioAssay data set” (2004):
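Each compound was tested at five concentrations against cells in 96-well plates for 48 hours. GI50 = concentration required for 50% inhibition of growth.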 Calls of active or inactive are those of the source. Rule as the data show it: active = GI50 up to about 1.1 µM and inactive = higher.

Legend:
Test in all cases: NCI anticancer screen, dose series, 48 h
SK-MEL-28 = system: SK-MEL-28
DLD-1 = system: DLD-1
SK-MEL-2 = system: SK-MEL-2
HT-29 = system: HT-29
HOP-92 = system: HOP-92
XF498 = system: XF498
OVCAR-3 = system: OVCAR-3
CAKI-1 = system: CAKI-1
HL-60 = system: HL-60
SW-620 = system: SW-620
SF-268 = system: SF-268
DMS-273 = system: DMS-273
LXFL 529 = system: LXFL 529
NCI-H226 = system: NCI-H226
SF-295 = system: SF-295
EKVX = system: EKVX
M19-MEL = system: M19-MEL
CCRF-CEM = system: CCRF-CEM
K562 = system: K562
NCI-H23 = system: NCI-H23
SNB-19 = system: SNB-19
NCI-H522 = system: NCI-H522
RXF 631 = system: RXF 631
LOX IMVI = system: LOX IMVI
SN12C = system: SN12C
COLO 205 = system: COLO 205
A498 = system: A498
SK-OV-3 = system: SK-OV-3
A549 = system: A549
HOP-62 = system: HOP-62
Malme-3M = system: Malme-3M
SF-539 = system: SF-539
OVCAR-8 = system: OVCAR-8
SNB-78 = system: SNB-78
ACHN = system: ACHN
RPMI-8226 = system: RPMI-8226
786-0 = system: 786-0
RXF 393 = system: RXF 393
NCI-H460 = system: NCI-H460
HCC 2998 = system: HCC 2998
OVCAR-4 = system: OVCAR-4
SK-MEL-5 = system: SK-MEL-5
IGROV-1 = system: IGROV-1
TK-10 = system: TK-10
KM12 = system: KM12
UO-31 = system: UO-31
MOLT-4 = system: MOLT-4
SNB-75 = system: SNB-75
KM-20L2 = system: KM-20L2
M14 = system: M14
UACC-257 = system: UACC-257
U-251 = system: U-251
OVCAR-5 = system: OVCAR-5
HCT-116 = system: HCT-116
HCT-15 = system: HCT-15
UACC-62 = system: UACC-62
SR = system: SR
DMS-114 = system: DMS-114

CCc1cccc(C)c1NC(=O)C1=C(C)NC(C)=C(C(=O)Nc2c(C)cccc2CC)C1c1ccc([N+](=O)[O-])cc1
GI50 (SK-MEL-28): 51.4 µM (inactive)
GI50 (DLD-1): 29 µM (inactive)
GI50 (SK-MEL-2): 35.6 µM (inactive)
GI50 (HT-29): 44.5 µM (inactive)
GI50 (HOP-92): 2.75 µM (inactive)
GI50 (XF498): 19.4 µM (inactive)
GI50 (OVCAR-3): 44.9 µM (inactive)
GI50 (CAKI-1): 25.5 µM (inactive)
GI50 (HL-60): 17.9 µM (inactive)
GI50 (SW-620): 72.1 µM (inactive)
GI50 (SF-268): 39.9 µM (inactive)
GI50 (DMS-273): 38.6 µM (inactive)
GI50 (LXFL 529): 37.9 µM (inactive)
GI50 (NCI-H226): 39.8 µM (inactive)
GI50 (SF-295): 58.7 µM (inactive)
GI50 (EKVX): 27.8 µM (inactive)
GI50 (M19-MEL): 38.1 µM (inactive)
GI50 (CCRF-CEM): 27.4 µM (inactive)
GI50 (K562): 23.9 µM (inactive)
GI50 (NCI-H23): 27.3 µM (inactive)
GI50 (SNB-19): 53.5 µM (inactive)
GI50 (NCI-H522): 15.5 µM (inactive)
GI50 (RXF 631): 29.1 µM (inactive)
GI50 (LOX IMVI): 40.9 µM (inactive)
GI50 (SN12C): 45.7 µM (inactive)
GI50 (COLO 205): 21.9 µM (inactive)
GI50 (A498): 40.8 µM (inactive)
GI50 (SK-OV-3): > 100 µM (inactive)
GI50 (A549): 33.5 µM (inactive)
GI50 (HOP-62): 40.1 µM (inactive)
GI50 (Malme-3M): 75.3 µM (inactive)
GI50 (SF-539): > 100 µM (inactive)
GI50 (OVCAR-8): 49.5 µM (inactive)
GI50 (SNB-78): 97.1 µM (inactive)
GI50 (ACHN): 18.3 µM (inactive)
GI50 (RPMI-8226): 15.3 µM (inactive)
GI50 (786-0): 72.8 µM (inactive)
GI50 (RXF 393): 24.4 µM (inactive)
GI50 (NCI-H460): 28.6 µM (inactive)
GI50 (HCC 2998): 21.3 µM (inactive)
GI50 (OVCAR-4): 13.4 µM (inactive)
GI50 (SK-MEL-5): 34 µM (inactive)
GI50 (IGROV-1): 29.6 µM (inactive)
GI50 (TK-10): 83.9 µM (inactive)
GI50 (KM12): 49.9 µM (inactive)
GI50 (UO-31): 16.3 µM (inactive)
GI50 (MOLT-4): 11.6 µM (inactive)
GI50 (SNB-75): 3.98 µM (inactive)
GI50 (KM-20L2): 39.9 µM (inactive)
GI50 (M14): 34.8 µM (inactive)
GI50 (UACC-257): 41.8 µM (inactive)
GI50 (U-251): 60 µM (inactive)
GI50 (OVCAR-5): > 100 µM (inactive)

O=C(O)CNc1c2ccccc2nc2ccccc12
GI50 (HCT-116): 78.3 µM (inactive)
GI50 (SK-MEL-28): > 100 µM (inactive)
GI50 (DLD-1): > 100 µM (inactive)
GI50 (SK-MEL-2): > 100 µM (inactive)
GI50 (HT-29): > 100 µM (inactive)
GI50 (HOP-92): > 100 µM (inactive)
GI50 (HCT-15): > 100 µM
GI50 (XF498): > 100 µM (inactive)
GI50 (OVCAR-3): 80.4 µM (inactive)
GI50 (CAKI-1): > 100 µM (inactive)
GI50 (HL-60): 48.2 µM (inactive)
GI50 (SW-620): > 100 µM (inactive)
GI50 (SF-268): > 100 µM (inactive)
GI50 (DMS-273): > 100 µM (inactive)
GI50 (LXFL 529): > 100 µM (inactive)
GI50 (NCI-H226): > 100 µM (inactive)
GI50 (SF-295): > 100 µM (inactive)
GI50 (EKVX): > 100 µM (inactive)
GI50 (UACC-62): > 100 µM (inactive)
GI50 (CCRF-CEM): > 100 µM (inactive)
GI50 (K562): > 100 µM (inactive)
GI50 (NCI-H23): > 100 µM (inactive)
GI50 (SNB-19): > 100 µM (inactive)
GI50 (NCI-H522): 49.8 µM (inactive)
GI50 (RXF 631): > 100 µM (inactive)
GI50 (LOX IMVI): > 100 µM (inactive)
GI50 (SN12C): > 100 µM (inactive)
GI50 (COLO 205): > 100 µM (inactive)
GI50 (SK-OV-3): > 100 µM (inactive)
GI50 (A549): > 100 µM (inactive)
GI50 (Malme-3M): > 100 µM (inactive)
GI50 (SF-539): > 100 µM (inactive)
GI50 (OVCAR-8): > 100 µM (inactive)
GI50 (ACHN): > 100 µM (inactive)
GI50 (RPMI-8226): 56.8 µM (inactive)
GI50 (786-0): > 100 µM (inactive)
GI50 (SR): > 100 µM (inactive)
GI50 (RXF 393): > 100 µM (inactive)
GI50 (NCI-H460): > 100 µM (inactive)
GI50 (HCC 2998): > 100 µM (inactive)
GI50 (OVCAR-4): 22.1 µM (inactive)
GI50 (SK-MEL-5): > 100 µM (inactive)
GI50 (IGROV-1): > 100 µM (inactive)
GI50 (TK-10): > 100 µM (inactive)
GI50 (DMS-114): 60.4 µM (inactive)
GI50 (KM12): > 100 µM (inactive)
GI50 (UO-31): 50.6 µM (inactive)
GI50 (MOLT-4): > 100 µM (inactive)
GI50 (SNB-75): > 100 µM (inactive)
GI50 (KM-20L2): > 100 µM (inactive)
GI50 (M14): > 100 µM (inactive)
GI50 (UACC-257): > 100 µM (inactive)
GI50 (U-251): > 100 µM (inactive)
GI50 (OVCAR-5): > 100 µM (inactive)
